Experimental data as given in patent US20260015350A1, “AZAQUINAZOLINE PAN-KRAS INHIBITORS” (Mirati Therapeutics, Inc., priority 2022, published 2026).

Columns and labels:
KRas^WT = biological target: T1, KRas^WT (Homo sapiens, UniProt P01116); assay: KRas binding assay (TR-FRET tracer displacement), KRas WT; conditions: single point, 10 nM compound, TR-FRET
T1 construct: Biotinylated KRas (corresponding to amino acids 1-169, produced at Accelegan Inc.); biotin (biotinylated); purchased Accelegan Inc

KRas^G12S = biological target: T2, KRas^G12S (Homo sapiens, UniProt P01116, G12S); assay: KRas binding assay (TR-FRET tracer displacement), KRas G12S; conditions: single point, 10 nM compound, TR-FRET
T2 construct: Biotinylated KRas (corresponding to amino acids 1-169, produced at Accelegan Inc.); biotin (biotinylated); purchased Accelegan Inc

[1] = test system: KRas-mediated phosphorylation of ERK in PSN1 cells; assay: Inhibition of KRas-mediated phosphorylation of ERK (Cisbio HTRF pERK), PSN1 cells; assay type: cell-based; conditions: Homo sapiens
How it was run: (§1)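 Seeding density was 6,000 cells/well; medium RPMI, 10% FBS. Read-out by homogeneous time-resolved fluorescence (pERK) after 4 hours covered at room temperature.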

[2] = test system: KRas-mediated phosphorylation of ERK in MKN1 cells; assay: Inhibition of KRas-mediated phosphorylation of ERK (Cisbio HTRF pERK), MKN1 cells; assay type: cell-based; conditions: Homo sapiens, MKN-1
How it was run: as §1

KRas^G12C = biological target: T3, KRas^G12C (Homo sapiens, UniProt P01116, G12C); assay: KRas binding assay (TR-FRET tracer displacement), KRas G12C; conditions: single point, 10 nM compound, TR-FRET
T3 construct: Biotinylated KRas (corresponding to amino acids 1-169, produced at Accelegan Inc.); biotin (biotinylated); purchased Accelegan Inc

KRas^Q61H = biological target: T4, KRas^Q61H (Homo sapiens, UniProt P01116, Q61H); assay: KRas binding assay (TR-FRET tracer displacement), KRas Q61H; conditions: single point, 10 nM compound, TR-FRET
T4 construct: Biotinylated KRas (corresponding to amino acids 1-169, produced at Accelegan Inc.); biotin (biotinylated); purchased Accelegan Inc

KRas^G12R = biological target: T5, KRas^G12R (Homo sapiens, UniProt P01116, G12R); assay: KRas binding assay (TR-FRET tracer displacement), KRas G12R
T5 construct: Biotinylated KRas (corresponding to amino acids 1-169, produced at Accelegan Inc.); biotin (biotinylated); purchased Accelegan Inc

[3] = test system: KRas-mediated phosphorylation of ERK in H358 cells; assay: Inhibition of KRas-mediated phosphorylation of ERK (Cisbio HTRF pERK), H358 cells; assay type: cell-based; conditions: Homo sapiens, NCI-H358, 3 h, single point, 100 nM compound, 3 hrs
How it was run: (§2)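 Signal read by HTRF (d2/Cryptate antibody pair, 2 hr room-temperature incubation on lysate). Cells: 6,000 per well, 3 hr compound exposure. Titration: 10 uM highest, 3-fold, 10 points.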

[4] = test system: KRas-mediated phosphorylation of ERK in AsPC-1 cells; assay: Inhibition of KRas-mediated phosphorylation of ERK (Cisbio HTRF pERK), AsPC-1 cells; assay type: cell-based; conditions: Homo sapiens, ASPC1, AsPC-1 cells; HTRF pERK
How it was run: as §2

[5] = test system: KRas-mediated phosphorylation of ERK in A549 cells; assay: Inhibition of KRas-mediated phosphorylation of ERK (Cisbio HTRF pERK), A549 cells; assay type: cell-based; conditions: Homo sapiens; for IC50: HTRF pERK
How it was run: (§3)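 Using 6,000 cells per well, compounds are applied for 3 hrs and cells then lysed at 4° C with shaking for 40 mins. Phospho-ERK is measured by HTRF after 2 hrs of lysate incubation with the d2/Cryptate antibody mixture.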

[6] = test system: KRas-mediated phosphorylation of ERK in H460 cells; assay: Inhibition of KRas-mediated phosphorylation of ERK (Cisbio HTRF pERK), H460 cells; assay type: cell-based; conditions: Homo sapiens, NCI-H460, HTRF pERK
How it was run: as §2

KRas^G13D = biological target: T6, KRas^G13D (Homo sapiens, UniProt P01116, G13D); assay: KRas binding assay (TR-FRET tracer displacement), KRas G13D; conditions: single point, 10 nM compound, TR-FRET
T6 construct: Biotinylated KRas (corresponding to amino acids 1-169, produced at Accelegan Inc.); biotin (biotinylated); purchased Accelegan Inc

KRas^G12D = biological target: T7, KRas^G12D (Homo sapiens, UniProt P01116, G12D); assay: KRas binding assay (TR-FRET tracer displacement), KRas G12D
T7 construct: Biotinylated KRas (corresponding to amino acids 1-169, produced at Accelegan Inc.); biotin (biotinylated); purchased Accelegan Inc

KRas^G12A = biological target: T8, KRas^G12A (Homo sapiens, UniProt P01116, G12A); assay: KRas binding assay (TR-FRET tracer displacement), KRas G12A; conditions: single point, 10 nM compound, TR-FRET
T8 construct: Biotinylated KRas (corresponding to amino acids 1-169, produced at Accelegan Inc.); biotin (biotinylated); purchased Accelegan Inc

[7] = test system: KRas-mediated phosphorylation of ERK in H727 cells; assay: Inhibition of KRas-mediated phosphorylation of ERK (Cisbio HTRF pERK), H727 cells; assay type: cell-based; conditions: Homo sapiens, NCI-H727, H727 cells; HTRF pERK
How it was run: as §2

KRas^G12V = biological target: T9, KRas^G12V (Homo sapiens, UniProt P01116, G12V); assay: KRas binding assay (TR-FRET tracer displacement), KRas G12V
T9 construct: Biotinylated KRas (corresponding to amino acids 1-169, produced at Accelegan Inc.); biotin (biotinylated); purchased Accelegan Inc

[8] = test system: KRas-mediated phosphorylation of ERK in HCT116 cells; assay: Inhibition of KRas-mediated phosphorylation of ERK (Cisbio HTRF pERK), HCT116 cells; assay type: cell-based; conditions: Homo sapiens, HCT-116, HTRF pERK
How it was run: as §3

T2 sequence (P01116 1-169 isoform P01116-2 G12S): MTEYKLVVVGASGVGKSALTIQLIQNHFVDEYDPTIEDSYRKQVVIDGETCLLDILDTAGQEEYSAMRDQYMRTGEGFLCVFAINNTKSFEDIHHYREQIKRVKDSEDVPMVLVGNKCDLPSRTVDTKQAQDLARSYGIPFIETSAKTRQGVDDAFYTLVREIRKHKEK
T8 sequence (P01116 1-169 isoform P01116-2 G12A): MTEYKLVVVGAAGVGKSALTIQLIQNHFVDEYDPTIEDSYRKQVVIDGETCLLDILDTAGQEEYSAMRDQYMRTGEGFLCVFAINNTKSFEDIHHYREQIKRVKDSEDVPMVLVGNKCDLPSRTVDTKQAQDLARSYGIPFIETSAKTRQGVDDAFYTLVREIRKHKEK
T1 sequence (P01116 1-169 isoform P01116-2): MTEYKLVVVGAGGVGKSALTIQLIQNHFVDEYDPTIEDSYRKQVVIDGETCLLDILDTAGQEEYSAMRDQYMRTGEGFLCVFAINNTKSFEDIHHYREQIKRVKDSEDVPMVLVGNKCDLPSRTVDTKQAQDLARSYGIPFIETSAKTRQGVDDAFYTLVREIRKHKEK
T6 sequence (P01116 1-169 isoform P01116-2 G13D): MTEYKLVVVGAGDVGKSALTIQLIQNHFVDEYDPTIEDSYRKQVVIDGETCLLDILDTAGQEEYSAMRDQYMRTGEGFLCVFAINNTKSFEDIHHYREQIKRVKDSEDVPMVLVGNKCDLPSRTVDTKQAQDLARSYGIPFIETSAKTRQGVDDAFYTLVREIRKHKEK
T7 sequence (P01116 1-169 isoform P01116-2 G12D): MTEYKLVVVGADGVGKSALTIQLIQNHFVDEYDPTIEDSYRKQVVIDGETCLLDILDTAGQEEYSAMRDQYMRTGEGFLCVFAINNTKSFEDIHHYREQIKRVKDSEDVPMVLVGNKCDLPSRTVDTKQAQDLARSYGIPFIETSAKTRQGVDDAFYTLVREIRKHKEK
T5 sequence (P01116 1-169 isoform P01116-2 G12R): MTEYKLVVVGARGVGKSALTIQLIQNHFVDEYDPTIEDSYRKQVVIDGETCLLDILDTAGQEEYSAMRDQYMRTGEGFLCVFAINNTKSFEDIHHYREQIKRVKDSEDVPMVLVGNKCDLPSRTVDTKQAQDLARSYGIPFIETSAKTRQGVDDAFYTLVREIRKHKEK
T4 sequence (P01116 1-169 isoform P01116-2 Q61H): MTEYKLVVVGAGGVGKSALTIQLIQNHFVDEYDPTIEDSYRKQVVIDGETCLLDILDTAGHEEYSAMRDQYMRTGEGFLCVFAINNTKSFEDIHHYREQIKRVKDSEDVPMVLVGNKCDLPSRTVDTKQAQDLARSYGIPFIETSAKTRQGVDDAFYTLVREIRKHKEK
T3 sequence (P01116 1-169 isoform P01116-2 G12C): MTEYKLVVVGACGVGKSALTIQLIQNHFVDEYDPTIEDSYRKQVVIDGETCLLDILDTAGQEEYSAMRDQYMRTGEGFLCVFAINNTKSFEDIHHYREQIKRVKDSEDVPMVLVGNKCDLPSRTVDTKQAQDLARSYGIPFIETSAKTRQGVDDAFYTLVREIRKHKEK
T9 sequence (P01116 1-169 isoform P01116-2 G12V): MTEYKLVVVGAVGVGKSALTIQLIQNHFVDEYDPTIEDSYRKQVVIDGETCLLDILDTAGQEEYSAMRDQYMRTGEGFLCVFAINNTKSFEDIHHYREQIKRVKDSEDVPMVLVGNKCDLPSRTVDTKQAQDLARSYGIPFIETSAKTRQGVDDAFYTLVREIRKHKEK

| Compound | inhibition at 0.01 µM (KRas^WT) | inhibition at 0.01 µM (KRas^G12S) | IC50 [1] | IC50 [2] | inhibition at 0.01 µM (KRas^G12C) | inhibition at 0.01 µM (KRas^Q61H) | IC50 (KRas^G12R) | inhibition at 0.1 µM [3] | IC50 [4] | inhibition at 0.1 µM ([5]; A549, 3 h, single point, 100 nM compound, 3 hrs) | IC50 [6] | inhibition at 0.01 µM (KRas^G13D) | IC50 (KRas^G12D) | inhibition at 0.01 µM (KRas^G12A) | IC50 [7] | IC50 (KRas^G12V) | IC50 [8] | IC50 [5] |
| --- | --- | --- | --- | --- | --- | --- | --- | --- | --- | --- | --- | --- | --- | --- | --- | --- | --- | --- |
| CCc1c(F)ccc2cc(O)cc(-c3ncc4c(N5CCC[C@]6(C5)C[C@H](O)C6)nc(OC[C@@]56CCCN5[C@H](COC(=O)N(C)C)CC6)nc4c3F)c12 [Example 712, ((3S,7aS)-7a-(((7-(8-ethyl-7-fluoro-3-hydroxynaphthalen-1-yl)-8-fluoro-4-((2R,4r)-2-hydroxy-6-azaspiro[3.5]nonan-6-yl)pyrido[4,3-d]pyrimidin-2-yl)oxy)methyl)hexahydro-1H-pyrrolizin-3-yl)methyl dimethylcarbamate] | 86% | 90% | 2710 nM | 12 nM | 94% | 90% | < 2 nM | 95% | 15 nM | 52% | 22 nM | 90% | 2 nM | 88% | 30 nM | < 2 nM |  |  |
| CCc1c(F)ccc2cc(O)cc(-c3ncc4c(N5C[C@@H]6C[C@H](C5)[C@H](O)[C@@H]6O)nc(OC[C@@]56CCCN5C[C@H](F)C6)nc4c3F)c12 [Example 568, (1R,5S,6R,7S)-3-(7-(8-ethyl-7-fluoro-3-hydroxynaphthalen-1-yl)-8-fluoro-2-(((2R,7aS)-2-fluorohexahydro-1H-pyrrolizin-7a-yl)methoxy)pyrido[4,3-d]pyrimidin-4-yl)-3-azabicyclo[3.2.1]octane-6,7-diol] | 97% | 98% | 1380 nM | 2 nM | 96% | 98% | < 2 nM |  | 62 nM |  | 17 nM | 98% | < 2 nM | 94% | 33 nM | < 2 nM | 29 nM | 19 nM |
| CCc1c(F)ccc2cc(O)cc(-c3ncc4c(N5CCCC6(CC(O)C6)C5)nc(OCC5(CN(C)C)CC5)nc4c3F)c12 (stereo not shown) [Example 698, 6-(2-((1-((dimethylamino)methyl)cyclopropyl)methoxy)-7-(8-ethyl-7-fluoro-3-hydroxynaphthalen-1-yl)-8-fluoropyrido[4,3-d]pyrimidin-4-yl)-6-azaspiro[3.5]nonan-2-ol] | 82% | 86% | 4150 nM | 17 nM | 91% | 88% | < 2 nM |  | 87 nM |  | 72 nM | 84% | 2 nM | 77% | 68 nM | < 2 nM | 188 nM | 141 nM |
| CCNC(=O)OC[C@@H]1CC[C@]2(COc3nc(N4CCC[C@@](C)(O)C4)c4cnc(-c5cc(O)cc6ccc(F)c(CC)c56)c(F)c4n3)CCCN12 [Example 717, ((3S,7aS)-7a-(((7-(8-ethyl-7-fluoro-3-hydroxynaphthalen-1-yl)-8-fluoro-4-((R)-3-hydroxy-3-methylpiperidin-1-yl)pyrido[4,3-d]pyrimidin-2-yl)oxy)methyl)hexahydro-1H-pyrrolizin-3-yl)methyl ethylcarbamate] | 92% | 92% | 1820 nM | 3 nM | 93% | 92% | < 2 nM |  | 22 nM |  | 30 nM | 94% | < 2 nM | 90% | 44 nM | < 2 nM | 84 nM | 47 nM |
